Laboratory results as given in US12590067B2, “Herbicidal cyclohexanedione derivatives” (SYNGENTA CROP PROTECTION AG, priority 2019, dated 2026).

Assays:
Assay in all cases: Glasshouse herbicidal test, pre- and post-emergence, percentage damage to the plant
Type in all cases: in vivo
[1] = system: Lolium perenne (LOLPE); settings: 250 g/h, evaluated after 13 days; for LOLPE POST percentage damage caused to the plant (five-point scale): post-emergence; for LOLPE PRE percentage damage caused to the plant (five-point scale): pre-emergence
Procedure: (§1) Seeds of a variety of test species are sown in standard soil in pots (Lolium perenne (LOLPE), Setaria faberi (SETFA), Alopecurus myosuroides (ALOMY), Echinochloa crus-galli (ECHCG), Avena fatua (AVEFA)). After cultivation for one day (pre-emergence) or after 8 days cultivation (post-emergence) under controlled conditions in a glasshouse (at 24/16° C., day/night; 14 hours light; 65% humidity), the plants are sprayed with an aqueous spray solution derived from the formulation of the technical active ingredient in acetone/water (50:50) solution containing 0.5% Tween 20 (polyoxyethelyene sorbitan monolaurate, CAS RN 9005-64-5). Compounds are applied at 250 g/h. The test plants are then grown in a glasshouse under controlled conditions in a glasshouse (at 24/16° C., day/night; 14 hours light; 65% humidity) and watered twice daily. After 13 days for pre and post-emergence, the test is evaluated for the percentage damage caused to the plant. The biological activities are shown in the following table on a five-point scale (5=80-100%; 4=60-79%; 3=40-59%; 2=20-39%; 1=0-19%).

[2] = system: Avena fatua (AVEFA); settings: 250 g/h, evaluated after 13 days; for AVEFA POST percentage damage caused to the plant (five-point scale): post-emergence; for AVEFA PRE percentage damage caused to the plant (five-point scale): pre-emergence
Procedure: as §1

[3] = system: Alopecurus myosuroides (ALOMY); settings: 250 g/h, evaluated after 13 days; for ALOMY POST percentage damage caused to the plant (five-point scale): post-emergence; for ALOMY PRE percentage damage caused to the plant (five-point scale): pre-emergence
Procedure: as §1

[4] = system: Echinochloa crus-galli (ECHCG); settings: 250 g/h, evaluated after 13 days; for ECHCG POST percentage damage caused to the plant (five-point scale): post-emergence; for ECHCG PRE percentage damage caused to the plant (five-point scale): pre-emergence
Procedure: as §1

[5] = system: Setaria faberi (SETFA); settings: 250 g/h, evaluated after 13 days; for SETFA POST percentage damage caused to the plant (five-point scale): post-emergence; for SETFA PRE percentage damage caused to the plant (five-point scale): pre-emergence
Procedure: as §1

| SMILES | LOLPE POST percentage damage caused to the plant (five-point scale) [1] | LOLPE PRE percentage damage caused to the plant (five-point scale) [1] | AVEFA POST percentage damage caused to the plant (five-point scale) [2] | AVEFA PRE percentage damage caused to the plant (five-point scale) [2] | ALOMY POST percentage damage caused to the plant (five-point scale) [3] | ALOMY PRE percentage damage caused to the plant (five-point scale) [3] | ECHCG POST percentage damage caused to the plant (five-point scale) [4] | ECHCG PRE percentage damage caused to the plant (five-point scale) [4] | SETFA POST percentage damage caused to the plant (five-point scale) [5] | SETFA PRE percentage damage caused to the plant (five-point scale) [5] |
| --- | --- | --- | --- | --- | --- | --- | --- | --- | --- | --- |
| CC#Cc1cc(CC)c(C2C(=O)CC3(CCN(C(C)=O)CC3)CC2=O)c(CC)c1 [Compound A48] | 5 (5=80-100%) | 5 (5=80-100%) | 5 (5=80-100%) | 5 (5=80-100%) | 5 (5=80-100%) | 5 (5=80-100%) | 5 (5=80-100%) | 4 (4=60-79%) | 5 (5=80-100%) | 5 (5=80-100%) |
| CC#Cc1cc(Cl)c(C2C(=O)CC3(CCN(C(C)=O)CC3)CC2=O)c(CC)c1 [Compound A49] | 5 (5=80-100%) | 5 (5=80-100%) | 5 (5=80-100%) | 5 (5=80-100%) | 5 (5=80-100%) | 5 (5=80-100%) | 5 (5=80-100%) | 5 (5=80-100%) | 5 (5=80-100%) | 5 (5=80-100%) |
| CCc1cc(-c2ccc(C#N)cn2)cc(C)c1C1C(=O)CC2(CCN(C(=O)C3CC3)CC2)CC1=O [Compound A51, 6-[4-[3-(cyclopropanecarbonyl)-8,10-dioxo-3-azaspiro[5.5]undecan-9-yl]-3-ethyl-5-methyl-phenyl]pyridine-3-carbonitrile] | 5 (5=80-100%) | 5 (5=80-100%) | 5 (5=80-100%) | 5 (5=80-100%) | 5 (5=80-100%) | 5 (5=80-100%) | 5 (5=80-100%) | 4 (4=60-79%) | 5 (5=80-100%) | 5 (5=80-100%) |
| CCc1cc(-c2ccc(C#N)cn2)cc(CC)c1C1C(=O)CC2(CCN(C(=O)C3CC3)CC2)CC1=O [Compound A52] | 5 (5=80-100%) | 5 (5=80-100%) | 5 (5=80-100%) | 5 (5=80-100%) | 5 (5=80-100%) | 5 (5=80-100%) | 5 (5=80-100%) | 5 (5=80-100%) | 5 (5=80-100%) | 5 (5=80-100%) |
| CCc1cc(-c2ccc(C#N)cn2)cc(Cl)c1C1C(=O)CC2(CCN(C(=O)C3CC3)CC2)CC1=O [Compound A53] | 5 (5=80-100%) | 5 (5=80-100%) | 5 (5=80-100%) | 5 (5=80-100%) | 5 (5=80-100%) | 5 (5=80-100%) | 5 (5=80-100%) | 5 (5=80-100%) | 5 (5=80-100%) | 5 (5=80-100%) |
| CC#Cc1cc(C)c(C2C(=O)CC3(CCN(C(C)=O)CC3)CC2=O)c(Cl)c1 [Compound A55] | 5 (5=80-100%) | 5 (5=80-100%) | 5 (5=80-100%) | 5 (5=80-100%) | 5 (5=80-100%) | 5 (5=80-100%) | 5 (5=80-100%) | 5 (5=80-100%) | 5 (5=80-100%) | 5 (5=80-100%) |
| CC(=O)N1CCC2(CC1)CC(=O)C(c1c(C)cc(-c3ccc(C#N)cn3)cc1Cl)C(=O)C2 [Compound A56] | 5 (5=80-100%) | 5 (5=80-100%) | 5 (5=80-100%) | 3 (3=40-59%) | 5 (5=80-100%) | 3 (3=40-59%) | 5 (5=80-100%) | 4 (4=60-79%) | 5 (5=80-100%) | 5 (5=80-100%) |
| Cc1cc(-c2ccc(C#N)cn2)cc(Cl)c1C1C(=O)CC2(CCN(C(=O)C3CC3)CC2)CC1=O [Compound A57] | 5 (5=80-100%) | 5 (5=80-100%) | 5 (5=80-100%) | 5 (5=80-100%) | 5 (5=80-100%) | 5 (5=80-100%) | 5 (5=80-100%) | 5 (5=80-100%) | 5 (5=80-100%) | 5 (5=80-100%) |
| Cc1cc(-c2ccc(F)cn2)cc(Cl)c1C1C(=O)CC2(CCN(C(=O)C3CC3)CC2)CC1=O [Compound A58] | 5 (5=80-100%) | 5 (5=80-100%) | 5 (5=80-100%) | 5 (5=80-100%) | 5 (5=80-100%) | 5 (5=80-100%) | 5 (5=80-100%) | 5 (5=80-100%) | 5 (5=80-100%) | 5 (5=80-100%) |
